Where two headings read alike, the source gives them in different places.
What was measured:
[1] = tested on: indomethacin-induced gastric ulcer; test: Inhibition of the indomethacin-induced gastric ulcer; type: in vivo, female RG-Wistar rats
Method: After being starved for 24 hours, female RG-Wistar rats were orally treated with the compounds to be tested and then orally with 20 mg/kg of indomethacin after 30 minutes. The evaluation was carried out in relation to the control group and the ED50 values were determined.

Acute toxicity, mouse = details: in vivo
Method: (§1) These investigations were carried out in OFI mice and OFA rats after starving for 24 hours. Ten animals were used for each dose. The number of doses was 3 or 4.

[2] = tested on: gastric ulcer after pylorus ligature; test: Gastric ulcer-inhibiting effect in rats operated according to Shay's method; type: in vivo, female OFA rats; details: for ED50: Rattus norvegicus, po, 18 h, p.o.
Method: Female OFA rats starved for 24 hours weighing 150 to 160 g were used. (The animals were allowed to drink water ad libitum). The animals were orally treated with the substance to be tested and after 1 hour laparotomy and pylorus ligature according to Shay [Gastroenterology 5, 43 (1945)] were performed under ether anaesthesia. After 18 hours the number and size of ulcers formed on the membranaceous part of the stomach were examined under microscope. The evaluation was made in relation to the control group and the ED50 values were determined. The sizes of the ulcers were expressed as score values from 0.5 to 32.

[3] = tested on: carbachol-induced gastric acid secretion; test: Inhibition of the carbachol-induced gastric acid secretion in rats; type: in vivo, male OFA rats; details: for Gastric acid, change / Gastric juice, change: vs control; for Gastric juice, treated: carbachol 0.01 mg/kg/hour;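 on Gastric acid, treated: dosed 30 min before a 5 hour experiment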
Method: (§2) After being starved for 24 hours, male OFA rats weighing 250 to 320 g were anaestethized by 40% urethane (0.5 ml/100 g), then the trachea and jugular vein were cannulated (10 animals were used for each dose). A glass cannula was inserted to the stomach from the direction of the pylorus. The stomach was washed with lukewarm water and then purified by air blown through. The gastric acid secretion was induced by an infusion of histamine (5 mg/kg/hour), or pentagastrin (0.05 mg/kg/hour) or carbachol (0.01 mg/kg/hour), respectively. […]

[4] = tested on: pentagastrin-induced gastric acid secretion; test: Inhibition of the pentagastrin-induced gastric acid secretion in rats; type: in vivo, male OFA rats; details: for Gastric acid, change / Gastric juice, change: vs control; for Gastric juice, treated: pentagastrin 0.05 mg/kg/hour;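 on Gastric acid, treated: dosed 30 min before a 5 hour experiment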
Method: as §2

Acute toxicity, rat = details: in vivo
Method: as §1

[5] = tested on: spontaneous gastric acid secretion; test: Gastric acid secretion-inhibiting effect according to Shay's method; type: in vivo, female OFA rats; details: for Gastric acid, change / Gastric juice, change: vs control; for Gastric acid, treated: titration with 0.1N NaOH
Method: After being starved for 24 hours, female OFA rats weighing 130 to 160 g were orally treated with the compounds to be tested. (15 animals were used for each dose.) One hour later laparotomy and pylorus ligature were carried out under ether anaesthesia according to Shay [Gastroenterology 5, 43 (1945)]. After 5 hours the animals were killed by an overdose of ether, their stomaches were excised and the volume and acid content of the gastric juice were determined. The acid was measured by titration with 0.1N NaOH, by using Topfer's indicator.

[6] = tested on: gastric ulcer induced by Aspirin plus stress; test: Inhibition of the gastric ulcer induced by Aspirin plus stress; type: in vivo, female RG-Wistar rats
Method: After being starved for 24 hours, female RG-Wistar rats weighing 120 to 150 g were orally treated with the compound to be tested and then orally with Aspirin. The animals were sensitized by the aspirin pretreatment and a strong ulceration was induced in the glandular part of stomach of the animals by a subsequent stress (fastening, ducking in water of 22° C. temperature). The ulceration was evaluated as score values from 0 to 2.

[7] = tested on: histamine-induced gastric acid secretion; test: Inhibition of the histamine-induced gastric acid secretion in rats; type: in vivo, male OFA rats; details: for Gastric acid, change / Gastric juice, change: vs control; for Gastric juice, treated: histamine 5 mg/kg/hour;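 on Gastric acid, treated: dosed 30 min before a 5 hour experiment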
Method: as §2

[8] = tested on: reserpine-induced gastric ulcer; test: Inhibition of the reserpine-induced gastric ulcer; type: in vivo, female OFA rats; details: for ED50: Rattus norvegicus, po, 18 h, p.o., reserpine 5 mg/kg s.c.
Method: After being starved for 24 hours, female OFA rats were orally treated with the compounds to be tested and then subcutaneously (s.c.) with 5 mg/kg of reserpine after 1 hour. After 18 hours the animals were killed and their stomach were examined under microscope. The evaluation was performed as described under the preceding paragraph 1.

[9] = tested on: acetic acid-induced chronic ulcer; test: Recovery-influencing effect on the acetic acid-induced chronic ulcer; type: in vivo, female RG-Wistar rats
Method: After anaesthesia by ether and laparotomy, 50 μl of 20% acetic acid were injected into the stomach wall of female RG-Wistar rats. After 5 days the animals were orally treated with the compounds to be tested daily twice for 15 days. On the 16th day the animals were killed by ether and the size of the ulcers appearing on the stomach was measured. The grade of recovery was defined in relation to the control group.

[10] = read-out: ED50 related to the number of ulcers
[11] = read-out: ED50 related to the occurrance of ulcers
[12] = read-out: ED50 related to the severity of ulcers

Compound: Cc1cc(=O)[nH]c(SCc2ccccc2N(C)C)n1 [Example 1, 2-(2-dimethylaminobenzyl)thio-6-methyl-4(3H)-pyrimidinone]
- ED50 ([1]; Rattus norvegicus, po, indomethacin 20 mg/kg orally): 8.2 mg/kg
- ulcer inhibition, in words ([1]; compared with reference drugs): significantly stronger inhibited
- LD50 (Acute toxicity, mouse; ip, female mouse): 365 mg/kg
- LD50 (Acute toxicity, mouse; ip, male mouse): 360 mg/kg
- LD50 (Acute toxicity, mouse; po, female mouse, precision restricted by solubility): > 1000 mg/kg
- LD50 (Acute toxicity, mouse; po, male mouse, precision restricted by solubility): > 1000 mg/kg
- ED50 [2, 10]: 3.3 mg/kg
- ED50 [2, 11]: 9 mg/kg
- ED50 [2, 12]: 3.7 mg/kg
- ulcer inhibition, in words ([2]; compared with reference drugs): significantly stronger inhibited
- Gastric acid, treated ([3]; 12.5 mg/kg i.p.): 2.14 mL
- Gastric acid, change ([3]; 12.5 mg/kg i.p.): -22%
- Gastric juice, change ([3]; 12.5 mg/kg i.p.): -20%
- Gastric juice, treated ([3]; 12.5 mg/kg i.p.): 1.65 mL
- Gastric acid, treated ([3]; 20 mg/kg i.p.): 0.90 mL
- Gastric acid, change ([3]; 20 mg/kg i.p.): -67%
- Gastric juice, change ([3]; 20 mg/kg i.p.): -66%
- Gastric juice, treated ([3]; 20 mg/kg i.p.): 0.71 mL
- Gastric acid, treated ([3]; 25 mg/kg i.p.): 0.37 mL
- Gastric acid, change ([3]; 25 mg/kg i.p.): -87%
- Gastric juice, change ([3]; 25 mg/kg i.p.): -83%
- Gastric juice, treated ([3]; 25 mg/kg i.p.): 0.34 mL
- ED50 ([3]; Rattus norvegicus, ip, carbachol-induced, dose column i.p.): 16.5 mg/kg
- Gastric acid, treated ([4]; 6.25 mg/kg i.p.): 1.79 mL
- Gastric acid, change ([4]; 6.25 mg/kg i.p.): -34%
- Gastric juice, change ([4]; 6.25 mg/kg i.p.): -31%
- Gastric juice, treated ([4]; 6.25 mg/kg i.p.): 1.26 mL
- Gastric acid, treated ([4]; 12.5 mg/kg i.p.): 1.21 mL
- Gastric acid, change ([4]; 12.5 mg/kg i.p.): -55%
- Gastric juice, change ([4]; 12.5 mg/kg i.p.): -51%
- Gastric juice, treated ([4]; 12.5 mg/kg i.p.): 0.90 mL
- Gastric acid, treated ([4]; 25 mg/kg i.p.): 0.51 mL
- Gastric acid, change ([4]; 25 mg/kg i.p.): -81%
- Gastric juice, change ([4]; 25 mg/kg i.p.): -78%
- Gastric juice, treated ([4]; 25 mg/kg i.p.): 0.41 mL
- ED50 ([4]; Rattus norvegicus, ip, pentagastrin-induced, dose column i.p.): 9.5 mg/kg
- LD50 (Acute toxicity, rat; ip, female rat): 430 mg/kg
- LD50 (Acute toxicity, rat; ip, male rat): 450 mg/kg
- LD50 (Acute toxicity, rat; po, female rat, precision restricted by solubility): 2400 mg/kg
- LD50 (Acute toxicity, rat; po, male rat, precision restricted by solubility): > 3000 mg/kg
- Gastric juice, treated ([5]; 10 mg/kg p.o.): 6.76 mL
- Gastric acid, change ([5]; 10 mg/kg p.o.): -28.2%
- Gastric juice, change ([5]; 10 mg/kg p.o.): -10.6%
- Gastric acid, treated ([5]; 10 mg/kg p.o.): 2.45 mL
- Gastric juice, treated ([5]; 20 mg/kg p.o.): 6.15 mL
- Gastric acid, change ([5]; 20 mg/kg p.o.): -65.1%
- Gastric juice, change ([5]; 20 mg/kg p.o.): -12.9%
- Gastric acid, treated ([5]; 20 mg/kg p.o.): 1.17 mL
- Gastric juice, treated ([5]; 40 mg/kg p.o.): 4.51 mL
- Gastric acid, change ([5]; 40 mg/kg p.o.): -92.4%
- Gastric juice, change ([5]; 40 mg/kg p.o.): -34.4%
- Gastric acid, treated ([5]; 40 mg/kg p.o.): 0.22 mL
- inhibitor effect on gastric acid secretion, in words ([5]; compared with reference drugs): equiactive to the NC-1300 reference drug
- ED50 ([5]; po, gastric acid, Shay rat): 15 mg/kg
- ED50 ([6]; Rattus norvegicus, po, Aspirin plus stress): 7.3 mg/kg
- ulcer inhibition, in words ([6]; compared with reference drugs): significantly stronger inhibited
- Gastric acid, treated ([7]; 6.25 mg/kg i.p.): 3.41 mL
- Gastric acid, change ([7]; 6.25 mg/kg i.p.): -42%
- Gastric juice, change ([7]; 6.25 mg/kg i.p.): -44%
- Gastric juice, treated ([7]; 6.25 mg/kg i.p.): 2.14 mL
- Gastric acid, treated ([7]; 12.5 mg/kg i.p.): 1.90 mL
- Gastric acid, change ([7]; 12.5 mg/kg i.p.): -68%
- Gastric juice, change ([7]; 12.5 mg/kg i.p.): -64%
- Gastric juice, treated ([7]; 12.5 mg/kg i.p.): 1.38 mL
- Gastric acid, treated ([7]; 25 mg/kg i.p.): 0.66 mL
- Gastric acid, change ([7]; 25 mg/kg i.p.): -89%
- Gastric juice, change ([7]; 25 mg/kg i.p.): -87%
- Gastric juice, treated ([7]; 25 mg/kg i.p.): 0.49 mL
- ED50 ([7]; Rattus norvegicus, ip, histamine-induced, dose column i.p.): 6.8 mg/kg
- ED50 [8, 10]: 16 mg/kg
- ED50 [8, 11]: 18 mg/kg
- ED50 [8, 12]: 15 mg/kg
- ulcer inhibition, in words ([8]; compared with reference drugs): significantly stronger inhibited
- increase in the recovery ([9]; 15 mg/kg oral dose, daily twice for 15 days): 45%
- recovery from developed gastric ulcers, in words ([9]; compared with reference drug): better results were achieved in the recovery from developed gastric ulcers

Source: US5037830A, “Novel thiouracyl derivatives, pharmaceutical compositions containing them and process for preparing same” (Richter Gedeon Vegyeszeti Gyar RT, priority 1989, dated 1991)
